Test results as given in patent US20230055582A1, “COMPOSITIONS AND METHODS FOR TREATMENT OF INFLAMMATORY CONDITIONS AND DISEASES OF THE SKIN” (priority 2020, published 2023).
Several values for one entry are separate records, joined by “and”; a condition that tells them apart may be missing. Equal values may be shown once.

Tests used:
TNF-α = TNF-α in medium of poly I:C treated HaCaT cells, multiplex immunoassay; type: cell-based, human; conditions: 24 h
Method: (§1) CBD, PEA and DB. CBD was purchased from Sigma Israel. […] CBD was 3.18 mM solution in ethanol. DB was in pure liquid form. PEA was in powder form.
(§2) Procedure and administration of active compounds. […] Samples were frozen and shipped on dry ice.
(§3) Analysis of cytokine content. Samples were shipped to Eve Technologies, Calgary (Canada) for analysis. Samples were analyzed using Human Focused 13-Plex Discovery Assay, a Multiplex immunoassay with fluorometric detection. Preliminary tests were conducted in order to determine samples dilution. The cytokines measured were granulocyte-macrophage colony-stimulating factor (GM-CSF), interferon gamma (IFNy), interleukin 1 beta (IL-1B), IL-2, IL-4, IL-5, IL-6, IL-8, IL-10, IL-12, IL-13, monocyte chemoattractant protein-1 (MCP-1) and tumor necrosis factor alpha (TNF-α). Results were calculated only for GM-CSF, IL-6, IL-8, MCP-1 and TNF-α.

IL-6 = IL-6 in medium of poly I:C treated HaCaT cells, multiplex immunoassay; type: cell-based, human; conditions: 24 h
Method: (§4) CBD was purchased from Sigma Israel. […] PEA was in powder form.
(§5) Samples were frozen and shipped on dry ice.
(§6) Analysis of cytokine content. Samples were shipped to Eve Technologies, Calgary (Canada) for analysis. Samples were analyzed using Human Focused 13-Plex Discovery Assay, a Multiplex immunoassay with fluorometric detection. Preliminary tests were conducted in order to determine samples dilution. The cytokines measured were granulocyte-macrophage colony-stimulating factor (GM-CSF), interferon gamma (IFNy), interleukin 1 beta (IL-1B), IL-2, IL-4, IL-5, IL-6, IL-8, IL-10, IL-12, IL-13, monocyte chemoattractant protein-1 (MCP-1) and tumor necrosis factor alpha (TNF-α).

GM-CSF = GM-CSF in medium of poly I:C treated HaCaT cells, multiplex immunoassay; type: cell-based, human; conditions: 24 h
Method: as §1, §2, §3

MCP-1 = MCP-1 in medium of poly I:C treated HaCaT cells, multiplex immunoassay; type: cell-based, human; conditions: for MCP-1: 24 h
Method: as §1, §2, §3

IL-8 = IL-8 in medium of poly I:C treated HaCaT cells, multiplex immunoassay; type: cell-based, human; conditions: 24 h
Method: as §4, §5, §6

[1] = test system: GM-CSF, IL-6, IL-8, MCP-1 and TNF-α; test: Five inflammatory cytokines taken together, poly I:C treated HaCaT cells; type: cell-based, human; conditions: higher dose (10 μM) with poly I:C 100 μg/mL
Method: (§7) Cell culture. The human keratinocyte cell line HaCaT was a kind gift from Prof. Joseph Kost (Department of Chemical Engineering, Ben-Gurion University of the Negev, Israel). Cells were cultured in Dulbecco's Modified Eagle Medium (DMEM) (Biological Industries, Kibbutz Beit-Haemek, Israel) supplemented with 1% antibiotic-antimycotic (Tivan Biotech, Kfar-Saba, Israel), 1mM sodium pyruvate, and 10% fetal bovine serum (FBS) (Biological Industries), and were maintained in an incubator with 5% CO2 at 37° C.
(§8) CBD was purchased from Sigma Israel. […] PEA was in powder form. A 30 mM stock solution was made by dissolving PEA in dimethyl sulfoxide (DMSO). […] All stocks were filtered using a 0.2 μm filter before use and further diluted to the required concentration in cell medium. Vehicle (control) solutions contained the corresponding amount of DMSO (0.007%).
90,000 cells/well were plated on 12-well plates and allowed to attach at 37° C. for 24 hours. […]
Analysis of cytokine content. […] Samples were analyzed using Human Focused 13-Plex Discovery Assay, a Multiplex immunoassay with fluorometric detection. […] The cytokines measured were granulocyte-macrophage colony-stimulating factor (GM-CSF), interferon gamma (IFNy), interleukin 1 beta (IL-1B), IL-2, IL-4, IL-5, IL-6, IL-8, IL-10, IL-12, IL-13, monocyte chemoattractant protein-1 (MCP-1) and tumor necrosis factor alpha (TNF-α).

HaCaT cells [2] = test: Toxicity on HaCaT cells, qualitative light-microscope assessment after 50 hours; type: cell-based, human
Method: as §1
Toxicity. HaCaT cells were incubated in 12 wells plates until 60-70% confluency was achieved. Subsequently, the cells were washed and incubated with medium containing PEA, DB or CBD. After 50 hours of incubation, the wells were observed under a light microscope and toxicity of the active compounds was assessed qualitatively by comparing the treated cells to controls incubated with vehicle. As concluded, under the conditions tested, PEA can be safely used in concentration of up to 50 μM, DB is non-toxic at concentrations of up to 0.01%, and CBD is non-toxic at concentration of up to 15 μM.

HaCaT cells [3] = test: Cell viability, crystal violet assay, poly I:C treated HaCaT cells; conditions: for Cell viability increase: vs poly I:C alone; for Cell viability: 24 h
Method: as §7, §8
90,000 cells/well were plated on 12-well plates and allowed to attach at 37° C. for 24 hours. Subsequently, the wells were washed with phosphate-buffered saline (PBS) and the medium was replaced with a medium containing either vehicle (control) or poly I:C. […] The wells were then incubated for further 24 h and 50μL samples were drawn for analysis of cytokines. Samples were frozen and shipped on dry ice.
Cell viability assay. Cell viability was measured using a crystal violet assay. 90,000 cells/well were plated on 12-well plates and allowed to attach at 37° C. for 24 hours. […] 24 hours later medium was aspirated, and cells were washed twice with PBS. 500 μL of crystal violet staining solution (0.5% (w/v) crystal violet powder, 20% methanol) was added to each well, followed by incubation for 30 min at room temperature. The staining solution was discarded, the plates were washed 5 times with distilled water and dried, and 500 μL of 10% acetic acid (v/v) was added to each well. Absorbance was measured at 595 nm.

[4] = CBD 3 μM with poly I:C 100 μg/mL
[5] = CBD 3 μM with poly I:C 100 μg/mL, percent of poly I:C alone
[6] = CBD 10 μM with poly I:C 100 μg/mL
[7] = CBD 10 μM with poly I:C 100 μg/mL, percent of poly I:C alone
[8] = PEA 0.2 μM with poly I:C 100 μg/mL
[9] = PEA 0.2 μM with poly I:C 100 μg/mL, percent of poly I:C alone
[10] = PEA 2 μM with poly I:C 100 μg/mL
[11] = PEA 2 μM with poly I:C 100 μg/mL, percent of poly I:C alone
[12] = poly I:C 20 μg/mL, percent of control values
[13] = poly I:C 50 μg/mL, percent of control values
[14] = poly I:C 100 μg/mL, percent of control values

## C=C(C)[C@@H]1CCC(C)=C[C@H]1c1c(O)cc(CCCCC)cc1O [CBD, 2-[(1R,6R)-6-isopropenyl-3-methylcyclohex-2-en-1-yl]-5-pentylbenzene-1,3-diol]
TNF-α; [4]
  TNF-α: 3.277 pg/mL
TNF-α; [5]
  TNF-α: 50.64%
TNF-α; [6]
  TNF-α: 1.517 pg/mL
TNF-α; [7]
  TNF-α: 23.44%
IL-6; [4]
  IL-6: 18.95 pg/mL
IL-6; [5]
  IL-6: 53.94% and 53.04%
IL-6; [6]
  IL-6: 12.15 pg/mL
IL-6; [7]
  IL-6: 34.57%
GM-CSF; [4]
  GM-CSF: 56.44 pg/mL
GM-CSF; [5]
  GM-CSF: 73.32%
GM-CSF; [6]
  GM-CSF: 49.55 pg/mL
GM-CSF; [7]
  GM-CSF: 64.37%
MCP-1; [4]
  MCP-1: 956.97 pg/mL and 945.97 pg/mL
MCP-1; [5]
  MCP-1: 54.77%
MCP-1; [6]
  MCP-1: 272.60 pg/mL
MCP-1; [7]
  MCP-1: 15.78%
IL-8; [4]
  IL-8: 643.44 pg/mL
IL-8; [5]
  IL-8: 70.05%
IL-8; [6]
  IL-8: 335.44 pg/mL
IL-8; [7]
  IL-8: 36.52%
[1]
  All cytokines measured reduced: 60-80%
HaCaT cells [2]; 5 μM, 50 hours
  Toxicity: non toxic
HaCaT cells [2]; 15 μM, 50 hours
  Toxicity: non toxic
HaCaT cells [2]; 45 μM, 50 hours
  Toxicity: very toxic
HaCaT cells [2]; HaCaT cells, 50 hours, under the conditions tested
  non-toxic (safely used) concentration: up to 15 μM
HaCaT cells [3]; 3 μM with poly I:C 100 μg/mL
  Cell viability increase: 5.5%
HaCaT cells [3]; 10 μM with poly I:C 100 μg/mL
  Cell viability increase: 15.3%
HaCaT cells [3]; [4]
  Cell viability: 1.328 O.D.
HaCaT cells [3]; [5]
  Cell viability: 105.50%
HaCaT cells [3]; [6]
  Cell viability: 1.451 O.D.
HaCaT cells [3]; [7]
  Cell viability: 115.29%

## CCCCCCCCCCCCCCCC(=O)NCCO [PEA, palmitoylethanolamide]
TNF-α; [8]
  TNF-α: 4.673 pg/mL
TNF-α; [9]
  TNF-α: 72.23%
TNF-α; [10]
  TNF-α: 4.470 pg/mL
TNF-α; [11]
  TNF-α: 69.09%
IL-6; [8]
  IL-6: 27.43 pg/mL
IL-6; [9]
  IL-6: 78.08%
IL-6; [10]
  IL-6: 27.23 pg/mL
IL-6; [11]
  IL-6: 77.49%
GM-CSF; [8]
  GM-CSF: 60.36 pg/mL
GM-CSF; [9]
  GM-CSF: 78.42%
GM-CSF; [10]
  GM-CSF: 57.54 pg/mL
GM-CSF; [11]
  GM-CSF: 74.75%
MCP-1; [8]
  MCP-1: 1345.28 pg/mL
MCP-1; [9]
  MCP-1: 77.88%
MCP-1; [10]
  MCP-1: 1554.20 pg/mL
MCP-1; [11]
  MCP-1: 89.98%
IL-8; [8]
  IL-8: 810.38 pg/mL
IL-8; [9]
  IL-8: 88.23%
IL-8; [10]
  IL-8: 773.38 pg/mL and 773.27 pg/mL
IL-8; [11]
  IL-8: 84.19%
HaCaT cells [2]; human, 50 h
  non-toxic (safely used) concentration: up to 50 μM
HaCaT cells [3]; [8]
  Cell viability: 1.443 O.D.
HaCaT cells [3]; [10]
  Cell viability: 1.413 O.D.
HaCaT cells [3]; human, 0.2 μM
  Cell viability: 114.66%
HaCaT cells [3]; human, 2 μM
  Cell viability: 112.28%

## polyinosinic:polycytidylic acid [Poly I:C]
TNF-α; poly I:C 20 μg/mL alone
  TNF-α: 2.74 pg/mL
TNF-α; poly I:C 20 μg/mL, percent of control values, control below the standard curve
  TNF-α: 846.39%
TNF-α; poly I:C 50 μg/mL alone
  TNF-α: 3.81 pg/mL
TNF-α; poly I:C 50 μg/mL, percent of control values, control below the standard curve
  TNF-α: 1179.38%
TNF-α; poly I:C 100 μg/mL alone
  TNF-α: 6.47 pg/mL and 6.470 pg/mL
TNF-α; poly I:C 100 μg/mL, percent of control values, control below the standard curve
  TNF-α: 2001.03%
IL-6; poly I:C 20 μg/mL alone
  IL-6: 14.07 pg/mL
IL-6; [12]
  IL-6: 523.57%
IL-6; poly I:C 50 μg/mL alone
  IL-6: 19.50 pg/mL
IL-6; [13]
  IL-6: 725.81%
IL-6; poly I:C 100 μg/mL alone
  IL-6: 35.14 pg/mL
IL-6; [14]
  IL-6: 1307.82%
GM-CSF; poly I:C 20 μg/mL alone
  GM-CSF: 53.09 pg/mL
GM-CSF; [12]
  GM-CSF: 266.74%
GM-CSF; poly I:C 50 μg/mL alone
  GM-CSF: 62.68 pg/mL
GM-CSF; [13]
  GM-CSF: 314.94%
GM-CSF; poly I:C 100 μg/mL alone
  GM-CSF: 76.98 pg/mL
GM-CSF; [14]
  GM-CSF: 386.75%
MCP-1; poly I:C 20 μg/mL alone
  MCP-1: 369.54 pg/mL
MCP-1; [12]
  MCP-1: 704.95%
MCP-1; poly I:C 50 μg/mL alone
  MCP-1: 711.76 pg/mL
MCP-1; [13]
  MCP-1: 1357.80%
MCP-1; poly I:C 100 μg/mL alone
  MCP-1: 1727.32 pg/mL
MCP-1; [14]
  MCP-1: 3295.15%
MCP-1; poly I:C 100 μg/mL, vs control
  increase in cytokine concentration, MCP-1: up to 33 fold
IL-8; poly I:C 20 μg/mL alone
  IL-8: 657.01 pg/mL
IL-8; [12]
  IL-8: 330.64%
IL-8; poly I:C 50 μg/mL alone
  IL-8: 729.48 pg/mL
IL-8; [13]
  IL-8: 367.11%
IL-8; poly I:C 100 μg/mL alone
  IL-8: 918.50 pg/mL
IL-8; [14]
  IL-8: 462.24%
HaCaT cells [3]; poly I:C 20 μg/mL alone
  Cell viability: 1.827 O.D.
HaCaT cells [3]; poly I:C 50 μg/mL alone
  Cell viability: 1.714 O.D.
HaCaT cells [3]; poly I:C 100 μg/mL alone
  Cell viability: 1.259 O.D.
